We go through 34 compounds from US8969336B2, “Diamino heterocyclic carboxamide compound” (Astellas Pharma Inc., priority 2009, dated 2015).

The target in experiment [1] is EML4-ALK fusion protein v1 (Homo sapiens (Human), UniProt Q9UM73). The experiment is described as follows: Inhibitory activity against the kinase activity of EML4-ALK fusion protein (HTRF KinEASE-TK). The class given is biochemical. Particulars: ATP 100 μM, reaction 1 hour. From the text: A recombinant retrovirus was created from expression plasmid FLAG-EML4-ALKv1/pMX-iresCD8 in which cDNA for EML4-ALK fusion protein v1 was integrated, and injected into mouse lymphoid cell line BA/F3 cells. Using a magnetic bead reagent for cell separation and a purification column (anti-CD8 monoclonal antibody immobilized on magnetic beads and a MiniMACS purification column; both are products of Miltenyi Biotec Inc.), cell surface CD8-expressing cells were purified to establish EML4-ALK fusion protein v1-expressing BA/F3 cells. From the cells, EML4-ALK fusion protein v1 was purified and subjected to kinase activity evaluation. EML4-ALK fusion protein v1 was investigated for its phosphorylation activity toward a peptide substrate by using a kinase activity detection kit (HTRF KinEASE-TK; Cisbio Inc.). […] The ATP concentration used was 100 μM.
Chain of EML4-ALK fusion protein v1 (Q9UM73 other isoform, or with tags, fused parts or gaps): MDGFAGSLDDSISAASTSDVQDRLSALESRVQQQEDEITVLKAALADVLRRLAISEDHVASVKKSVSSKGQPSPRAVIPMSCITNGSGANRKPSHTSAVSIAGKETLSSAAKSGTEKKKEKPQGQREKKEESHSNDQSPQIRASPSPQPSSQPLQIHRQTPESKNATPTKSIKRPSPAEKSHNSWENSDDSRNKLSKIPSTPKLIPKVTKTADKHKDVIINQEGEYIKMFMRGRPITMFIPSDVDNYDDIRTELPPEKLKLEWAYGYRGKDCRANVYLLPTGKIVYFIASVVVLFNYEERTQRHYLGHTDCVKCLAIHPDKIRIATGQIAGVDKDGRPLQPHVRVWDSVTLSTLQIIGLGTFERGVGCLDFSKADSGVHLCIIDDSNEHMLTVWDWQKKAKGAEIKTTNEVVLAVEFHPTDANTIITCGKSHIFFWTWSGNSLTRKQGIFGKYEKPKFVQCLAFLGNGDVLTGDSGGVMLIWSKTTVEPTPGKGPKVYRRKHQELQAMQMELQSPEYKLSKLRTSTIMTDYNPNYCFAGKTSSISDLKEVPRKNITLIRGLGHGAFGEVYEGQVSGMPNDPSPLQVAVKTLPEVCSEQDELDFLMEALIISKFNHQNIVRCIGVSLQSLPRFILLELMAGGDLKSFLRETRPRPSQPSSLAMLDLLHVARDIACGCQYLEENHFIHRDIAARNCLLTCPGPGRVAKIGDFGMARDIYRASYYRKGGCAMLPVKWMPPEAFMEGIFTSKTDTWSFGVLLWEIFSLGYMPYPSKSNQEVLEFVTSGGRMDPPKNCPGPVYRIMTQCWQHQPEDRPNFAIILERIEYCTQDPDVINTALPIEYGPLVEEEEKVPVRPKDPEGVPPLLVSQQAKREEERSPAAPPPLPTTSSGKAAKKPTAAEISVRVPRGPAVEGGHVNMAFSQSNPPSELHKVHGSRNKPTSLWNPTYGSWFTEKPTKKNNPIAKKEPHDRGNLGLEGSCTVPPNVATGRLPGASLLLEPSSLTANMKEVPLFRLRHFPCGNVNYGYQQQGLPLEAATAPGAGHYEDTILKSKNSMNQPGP

For experiment [2], the system named is BA/F3 cells expressing EML4-ALK fusion protein v1. The experiment is described as follows: Growth inhibitory activity against EML4-ALK fusion protein-dependent cells. The class given is cell-based, mouse. Particulars: growth of EML4-ALK fusion protein v1-expressing BA/F3 cells, cultured 2 days. As to the method: EML4-ALK fusion protein v1-expressing BA/F3 cells can grow in the absence of IL-3. In other words, they are cells that EML4-ALK fusion protein v1-dependently grow.
In a 96-well plate (Iwaki), BA/F3 cells expressing EML4-ALK fusion protein v1 were seeded at 500 cells per well in RPMI1640 medium (Invitrogen) containing 10% fetal bovine serum, followed by addition of a test compound (final concentration: 10 μM to 0.1 nM). As a negative control, DMSO used as a solvent of the test compound was added. Then, the cells were cultured under 5% CO2 at 37° C. for 2 days. A cell counting reagent (AlmarBlue; Biosource) was added, and the cells were cultured for 150 minutes, followed by measurement of fluorescence intensity with a […] (Safire; Tecan) in accordance with instructions attached to the reagent.

In experiment [3] the test system is EML4-ALK fusion protein v1 expressing 3T3 cells. Description: Antitumor test (in vivo) on EML4-ALK fusion protein v1 expressing 3T3 cells. Particulars: oral 10 mg/kg once a day for 5 days, Balb/c nude mice, EML4-ALK v1 3T3 tumor; for rate of regression (tumor volume): values marked (regression). From the text:
Expression plasmid EML4-ALKv1/pMXS in which cDNA for EML4-ALK fusion protein v1 was integrated was trasfected into 3T3 fibroblast cells by the phosphate calcium method to thereby establish EML4-ALK fusion protein v1 expressing 3T3 cells. 3×10^6 cells of EML4-ALK fusion protein v1 expressing 3T3 cells suspended in PBS were inoculated subcutaneously by injection to the back of 5 weeks old male Balb/c nude mice (Charles River Japan, Inc.). After 7 days of the inoculation, the administration of test compound was initiated. The test was conducted in the solvent group and the compound group, 4 animals per group. The test compound was suspended in a solvent composed of 0.5% methylcellulose and administered orally at a dose of 10 mg/kg. Administrations were performed once a day for 5 days, and body weight and tumor size were measured every other day. Tumor volume was calculated using the following formula. [Tumor volume(mm^3)]=[Tumor major axis(mm)]×[tumor minor axis(mm)]^2×0.5
When regression of tumor volume is induced from the day of starting administration, the tumor volume on the day of starting administration and the state in which the tumor disappeared were assumed to be 0% regression and 100% regression, respectively, and the rate of regression of the test compound was calculated.

As to `CCc1nc(C(N)=O)c(Nc2ccc(N3CCC(N4CCN(C)CC4)CC3)cc2OC)nc1N[C@H]1CC[C@H](O)CC1` [Example 284], the half-maximal inhibitory concentration (IC50) in experiment [1] is 8.9 nM; in experiment [2] (Mus musculus, BaF3, 48 h), 85 nM.

As for `CCc1nc(C(N)=O)c(Nc2ccc(N3CCC(N4CCN(C)CC4)CC3)c(C)c2)nc1N[C@H]1CC[C@H](O)CC1` [Example 378], the IC50 in experiment [1] was 0.26 nM; in experiment [2] (Mus musculus, BaF3, 48 h), 6.1 nM. Also, the “inhibition rate (tumor volume)” value in experiment [3] is reported as 92%.

`CCc1nc(C(N)=O)c(Nc2ccc(N3CCN(C)CC3)c(C)c2)nc1N[C@H]1CC[C@@](C)(O)CC1` [Example 391]: the IC50 in experiment [1] stood at 0.22 nM; in experiment [2] (Mus musculus, BaF3, 48 h), 6.5 nM.

Consider `CCc1nc(C(N)=O)c(Nc2ccc(N3CCN(C4CCN(C)CC4)CC3)c(C)c2)nc1NC1CCOCC1` [Example 558], for which the IC50 is 2.2 nM in experiment [1] and 16 nM in experiment [2] (Mus musculus, BaF3, 48 h). Further, the “rate of regression (tumor volume)” value in experiment [3] is reported as 37 (regression) %.

`CCc1nc(C(N)=O)c(Nc2ccc(N3CCN(C)CC3)c(OC)c2)nc1N[C@H]1CC[C@H](O)CC1` [Example 355]: the IC50 worked out at 0.33 nM in experiment [1] and 9.2 nM in experiment [2] (Mus musculus, BaF3, 48 h).

In the case of `CCc1nc(C(N)=O)c(Nc2ccc(N3CCC(N4CCN(C)CC4)CC3)cc2)nc1NC1CCOCC1` [Example 546], the IC50 is 7.8 nM in experiment [1] and 23 nM in experiment [2] (Mus musculus, BaF3, 48 h). Further, the “inhibition rate (tumor volume)” value in experiment [3] is on record as 79%.

Take `CC(C)c1nc(C(N)=O)c(Nc2ccc(N3CCC(N4CCN(C)CC4)CC3)c(C(F)(F)F)c2)nc1N[C@H]1CC[C@H](O)CC1` [Example 388]: the IC50 in experiment [1] came to 0.17 nM; in experiment [2] (Mus musculus, BaF3, 48 h), 4.1 nM.

Take `CC(C)c1nc(C(N)=O)c(Nc2ccc(N3CCN(C)CC3)cc2)nc1NC1CCOCC1` [Example 554]: the IC50 in experiment [1] is 4.5 nM; in experiment [2] (Mus musculus, BaF3, 48 h), 14 nM.

On to `CCc1nc(C(N)=O)c(Nc2ccc(N3CCN(C)CC3)cc2)nc1N[C@H]1CC[C@H](O)CC1` [Example 325], for which the IC50 in experiment [1] was found to be 5.3 nM; in experiment [2] (Mus musculus, BaF3, 48 h), 20 nM.

For `CCc1nc(C(N)=O)c(Nc2ccc(N3CCC(N4CCN(C)CC4)CC3)cc2)nc1N[C@H]1CC[C@H](O)CC1` [Example 341], the half-inhibitory concentration (IC50) is 2.8 nM in experiment [1] and 11 nM in experiment [2] (Mus musculus, BaF3, 48 h).

Consider `CCc1nc(C(N)=O)c(Nc2ccc(N3CCC(N(C)C)C3)c(C(F)(F)F)c2)nc1N[C@H]1CC[C@H](O)CC1` (stereo partly drawn) [Example 406], for which the IC50 in experiment [1] was determined as 0.34 nM; in experiment [2] (Mus musculus, BaF3, 48 h) it was 9.8 nM.

As to `CCc1nc(C(N)=O)c(Nc2ccc(N3CCN(CC4CC4)CC3)c(C(F)(F)F)c2)nc1N[C@H]1CC[C@H](O)CC1` [Example 399], the half-maximal inhibitory concentration (IC50) stood at 0.94 nM in experiment [1] and 11 nM in experiment [2] (Mus musculus, BaF3, 48 h).

`CCc1nc(C(N)=O)c(Nc2ccc3cnn(C)c3c2)nc1N[C@H]1CC[C@H](O)CC1` [Example 328] registered an IC50 in experiment [2] (Mus musculus, BaF3, 48 h) of 76 nM.

Turning to `CCc1nc(C(N)=O)c(Nc2ccc(N3CCC(N4CCN(C)CC4)CC3)c(C)c2)nc1NC1CCOCC1` [Example 512], the IC50 in experiment [1] worked out at 1.5 nM; in experiment [2] (Mus musculus, BaF3, 48 h), 19 nM.

As for `CCc1nc(C(N)=O)c(Nc2ccc(N3CCC(N4CCN(C)CC4)CC3)c(C)c2)nc1NC1CCC(O)(C(C)C)CC1` (stereo not drawn) [Example 494], the IC50 in experiment [1] amounted to 4.1 nM; in experiment [2], 42 nM.

On to `Cc1cc(Nc2nc(N[C@H]3CC[C@H](O)CC3)c(Cl)nc2C(N)=O)ccc1N1CCC(N2CCN(C)CC2)CC1` [Example 538], for which the IC50 stood at 2.3 nM in experiment [1] and 7.7 nM in experiment [2] (Mus musculus, BaF3, 48 h).

As for `CCc1nc(C(N)=O)c(Nc2ccc(N3CCN(C)CC3)c(C)c2)nc1N[C@H]1CC[C@H](O)CC1` [Example 377], the IC50 in experiment [1] is 0.24 nM; in experiment [2] (Mus musculus, BaF3, 48 h), 6.9 nM.

Turning to `CCc1nc(C(N)=O)c(Nc2ccc(OC)c(N3CCN(C)CC3)c2)nc1N[C@H]1CC[C@H](O)CC1` [Example 383], the IC50 came to 0.23 nM in experiment [1] and 5.9 nM in experiment [2] (Mus musculus, BaF3, 48 h).

Regarding `CCc1nc(C(N)=O)c(Nc2ccc(N3CCC(N4CCN(C)CC4)CC3)c(C)c2)nc1NC1CCC(O)(C(C)C)CC1` (stereo not drawn) [Example 493], the values for the IC50 in experiment [1] and in experiment [2] were 2.6 nM and 19 nM, respectively.

On to `CCOc1cc(Nc2nc(N[C@H]3CC[C@H](O)CC3)c(CC)nc2C(N)=O)ccc1N1CCC(N2CCN(C)CC2)CC1` [Example 459], for which the IC50 in experiment [1] was determined as 0.26 nM; in experiment [2] (Mus musculus, BaF3, 48 h), 8.1 nM.

Take `CCc1nc(C(N)=O)c(Nc2cccc(S(C)(=O)=O)c2)nc1N[C@H]1CC[C@H](O)CC1` [Example 86]: the IC50 in experiment [1] turned out to be 17 nM; in experiment [2] (Mus musculus, BaF3, 48 h) it was 68 nM.

As for `CCc1nc(C(N)=O)c(Nc2ccc(N3CCN(C)CC3)c(F)c2)nc1NC1CCOCC1` [Example 550], the IC50 came out at 11 nM in experiment [1] and 39 nM in experiment [2] (Mus musculus, BaF3, 48 h).

Compound `CCc1nc(C(N)=O)c(Nc2ccc(N3CCC(N4CCN(C)CC4)CC3)c(OC)c2)nc1NC1CCOCC1` [Example 547] yielded an IC50 in experiment [2] (Mus musculus, BaF3, 48 h) of 5.7 nM.

`CCc1nc(C(N)=O)c(Nc2ccc(N3CCC(N4CCN(C)CC4)CC3)c(OC)c2)nc1N[C@H]1CC[C@H](O)CC1` [Example 340]: the IC50 was determined as 0.37 nM in experiment [1] and 9.5 nM in experiment [2] (Mus musculus, BaF3, 48 h).

Regarding `CCc1nc(C(N)=O)c(Nc2ccc(N3CCC(N4CCN(C)CC4)CC3)c(C)c2)nc1NC1CCC(O)(CC)CC1` (stereo not drawn) [Example 491], the IC50 in experiment [1] came to 2.8 nM; in experiment [2] it was 16 nM.

`CCc1nc(C(N)=O)c(Nc2ccc(N3CCC(N4CCN(C)CC4)CC3)c(C)c2)nc1N[C@H]1CC[C@@](C)(O)CC1` [Example 392]: the IC50 in experiment [1] worked out at 0.21 nM; in experiment [2] (Mus musculus, BaF3, 48 h) it was 6.3 nM. The “rate of regression (tumor volume)” value in experiment [3] is 28 (regression) %.

Take `CCc1nc(C(N)=O)c(Nc2ccc(N3CCN(C(C)C)CC3)c(C)c2)nc1N[C@H]1CC[C@H](O)CC1` [Example 426]: the IC50 was found to be 0.49 nM in experiment [1] and 11 nM in experiment [2] (Mus musculus, BaF3, 48 h). In addition, in experiment [3], the “inhibition rate (tumor volume)” value is 81%.

Take `CCc1nc(C(N)=O)c(Nc2ccc(N3CCN(C)CC3)c(C(F)(F)F)c2)nc1N[C@H]1CC[C@H](O)CC1` [Example 354]: the IC50 is 0.77 nM in experiment [1] and 8.6 nM in experiment [2] (Mus musculus, BaF3, 48 h).

Regarding `COc1cc(Nc2nc(NC3CCOCC3)c(C(C)C)nc2C(N)=O)ccc1N1CCN(C)CC1` [Example 553], the “inhibition rate (tumor volume)” value in experiment [3] is 63%.

`CC(C)c1nc(C(N)=O)c(Nc2ccc(N3CCN(C)CC3)cc2)nc1N[C@H]1CC[C@H](O)CC1` [Example 343, 5-[(trans-4-hydroxycyclohexyl)amino]-6-isopropyl-3-{[4-(4-methylpiperazin-1-yl)phenyl]amino}pyrazine-2-carboxamide]: the IC50 stood at 2.1 nM in experiment [1] and 11 nM in experiment [2] (Mus musculus, BaF3, 48 h).

`CCc1nc(C(N)=O)c(Nc2ccc(N3CCN(C)CC3)cc2)nc1NC1CCOCC1` [Example 545]: the IC50 in experiment [1] came out at 11 nM; in experiment [2] (Mus musculus, BaF3, 48 h) it was 25 nM.

With `CCc1nc(C(N)=O)c(Nc2ccc(N3CCC(N4CCN(C)CC4)CC3)c(C(F)(F)F)c2)nc1N[C@H]1CC[C@H](O)CC1` [Example 370], the IC50 in experiment [1] came out at 0.65 nM; in experiment [2] (Mus musculus, BaF3, 48 h) it was 4.9 nM. The “inhibition rate (tumor volume)” value in experiment [3] is 81%.

Regarding `CCc1nc(C(N)=O)c(Nc2ccc(N3CCC(N4CCN(C)CC4)CC3)c(C)c2)nc1N[C@H]1CC[C@](C)(O)CC1` [Example 466], the IC50 in experiment [1] was found to be 0.93 nM; in experiment [2] (Mus musculus, BaF3, 48 h) it was 9.3 nM. Moreover, in experiment [3], the “rate of regression (tumor volume)” value is on record as 54 (regression) %.

Consider `CCc1nc(C(N)=O)c(Nc2ccc(N3CCC(N4CCN(C)CC4)CC3)c(C)c2)nc1NC1CCC(O)(CC)CC1` (stereo not drawn) [Example 490], for which the IC50 in experiment [1] came out at 3.1 nM; in experiment [2] (Mus musculus, BaF3, 48 h), 18 nM.
